# Test system: Escherichia coli
# Assay: antibacterial susceptibility determination from microscopic images (luminance value and area of bacteria)
# Format: cell-based
# Details: ampicillin 2 μg/mL; 0 to 360 minutes; with or without minimum filter; growth has not occurred over the entire image
# Description: The test plate 102 has a plurality of wells, and each well holds a medium component that facilitate the growth of bacteria and an antibacterial drug to be tested. After a bacterial solution containing the bacteria to be tested is dispensed to each well, the test plate 102 is introduced into the bacteria test apparatus 100. The bacteria test apparatus 100 is adjusted to a temperature, such as 37° C., at which the bacteria can grow.
# The illuminator 101 illuminates the test plate 102 with light. As the illuminator 101, a light source of white light such as a lamp or a light source of light in a specific wavelength range such as an LED may be used. Light passing through each well of the test plate 102 is condensed by the objective lens 103 and measured as an image by the imager 104. […] Further, images of a plurality of points in each well may be captured, or alternatively, a plurality of images of the inside of the culture solution away from the bottom surface of each well of the test plate 102 may be measured. […]
# The determiner 1055 acquires the new feature from the arithmetic unit 1051 and outputs the determination result for each well. […] The mean of luminance values is calculated from the image captured at the preset determination time, and a difference from the mean of luminance values at an initial culture stage is calculated. […]
smiles,measurement,value
CC1(C)S[C@@H]2[C@H](NC(=O)[C@H](N)c3ccccc3)C(=O)N2[C@H]1C(=O)O [ampicillin],time variation in mode of luminance values,does not vary

# — patent US12516364B2, “Device for testing bacterium, and method for testing bacterium” (Hitachi High-Tech Corporation, priority 2018, dated 2026)
